Measurements published in patent publication US9062028B2, “Bicyclic nitrogen containing heteroaryl TGR5 receptor modulators” (Bristol-Myers Squibb Company, priority 2011, dated 2015).
Where a name gives a salt, the structure may show the parent alone.

Experiments:
[1] = biological target: T1, recombinant human TGR5 (Homo sapiens, UniProt Q8TDU6); assay: cAMP assay (cAMP accumulation, HTRF) in CHOK1 cells stably expressing TGR5; type: cell-based; conditions: CHOK1 cells stably expressing human TGR5, 30 minutes at RT, 1% DMSO
T1 construct: expressed in transfected cells
T1 sequence (Q8TDU6 1-330): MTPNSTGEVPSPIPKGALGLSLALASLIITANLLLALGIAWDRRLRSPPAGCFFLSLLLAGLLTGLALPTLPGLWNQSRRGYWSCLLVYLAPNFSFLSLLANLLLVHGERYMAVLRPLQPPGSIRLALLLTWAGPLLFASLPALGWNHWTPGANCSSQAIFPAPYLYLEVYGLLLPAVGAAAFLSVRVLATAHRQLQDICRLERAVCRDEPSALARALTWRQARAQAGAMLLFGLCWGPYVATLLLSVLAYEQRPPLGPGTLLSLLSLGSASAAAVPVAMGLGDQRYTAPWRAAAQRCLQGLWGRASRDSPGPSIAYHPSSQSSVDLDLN
Summary of the method: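 Agonist-induced cAMP accumulation: stable TGR5-CHOK1 cells treated 30 min at RT with compound (1% DMSO) plus 0.1 mM IBMX. HTRF ratio converted to nM cAMP via standard curve; EC50 from four-parameter logistic fit, midpoint between baseline and maximum.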

[2] = biological target: T2, recombinant human DGAT1 (Homo sapiens, UniProt O75907); assay: Diacylglycerol Acyltransferase (DGAT) Assay; type: biochemical; conditions: membranes from Sf9 cells expressing recombinant human DGAT1; 2-monooleoylglycerol and [3H]-oleoyl-CoA as substrates; read-out: IC50 against the DGAT1 enzyme
T2 construct: made in house; host or cells: Sf9 insect cells (baculovirus), membrane preparation
T2 sequence (O75907 1-488): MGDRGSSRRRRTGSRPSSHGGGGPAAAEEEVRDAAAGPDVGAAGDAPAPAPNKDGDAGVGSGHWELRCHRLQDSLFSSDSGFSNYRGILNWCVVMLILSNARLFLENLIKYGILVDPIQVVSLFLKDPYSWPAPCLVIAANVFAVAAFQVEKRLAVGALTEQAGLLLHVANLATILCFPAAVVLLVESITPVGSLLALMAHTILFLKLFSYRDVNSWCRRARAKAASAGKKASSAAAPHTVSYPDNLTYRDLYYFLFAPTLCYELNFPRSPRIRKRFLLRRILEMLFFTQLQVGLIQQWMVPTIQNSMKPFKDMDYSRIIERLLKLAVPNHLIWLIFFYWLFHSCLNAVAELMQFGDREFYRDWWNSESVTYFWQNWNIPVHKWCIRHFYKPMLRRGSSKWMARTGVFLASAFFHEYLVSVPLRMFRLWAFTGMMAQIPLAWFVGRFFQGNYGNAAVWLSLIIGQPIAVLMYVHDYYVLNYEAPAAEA
Protocol: Diacylglycerol Acyltransferase (DGAT) Assay
DGAT1 enzyme was assayed using membranes isolated from Sf9 cells expressing the recombinant human DGAT1 cDNA with 2-monooleoylglycerol and [^3H]-oleoyl-CoA as substrates as described by Seethala et al. (Anal Biochem., 383(2):144-150 (Dec. 15, 2008)). Briefly, the assays were conducted in 384-well plates in a total volume of 30 μl at 25° C. In each assay, 200 ng of recombinant human DGAT1 membrane was incubated with 10 μM of 2-monooleoylglycerol and 15 μM of [^3H]-oleoyl-CoA in 100 mM potassium phosphate (pH 7.4) for 20 min with various concentrations of compounds delivered in DMSO. The assay was terminated by the addition of 20 μl of Stopping Solution (7.5 mg/ml Yittrium Oxide Polylysine beads, 3.3 mg/ml Fraction V BSA and 200 μM Mercuric chloride in 50 mM HEPES, pH 7.4). The signal was measured 1 h after quenching the reaction using LEADSEEKER^SM for 5 minutes. To calculate the degree of inhibition, the zero level of enzyme activity (blank) was defined by the above assay procedure using membrane form Sf9 cell uninfected with baculovirus (Naive) and the 100% level of DGAT1 enzyme activity was defined by human […] DGAT1 assay with the vehicle DMSO. The IC50s of inhibitors were determined by logistic 4 parameter equation in XL-fit.

SMILES | EC50 [1] | IC50 [2]
Cc1cccc(OCCCC(=O)N2CC3CC3c3c(-c4cnn(Cc5c(F)cc(C(=O)NCCC[C@H](N)C(=O)O)cc5Cl)c4)cccc32)c1C (stereo partly drawn) [Example 69A, (2S)-2-Amino-5-(3-chloro-4-((4-(3-(4-(2,3-dimethylphenoxy)butanoyl)-1a,2,3,7b-tetrahydro-1H-cyclopropa[c]quinolin-7-yl)-1H-pyrazol-1-yl)methyl)-5-fluorobenzamido)pentanoic acid] |  | > 10 µM
Cc1cccc(OCCCC(=O)N2CCCc3c(-c4cnn(CC(=O)O)c4)cccc32)c1C [Example 1, 2-(4-(1-(4-(2,3-Dimethylphenoxy)butanoyl)-1,2,3,4-tetrahydroquinolin-5-yl)-1H-pyrazol-1-yl)acetic acid] | 3540 nM | > 10 µM
Cc1cccc(OCCCC(=O)N2CCCc3c(-c4cnn(Cc5cccc(OCCP(=O)(O)O)c5)c4)cccc32)c1C [Example 69M, 2-(3-((4-(1-(4-(2,3-Dimethylphenoxy)butanoyl)-1,2,3,4-tetrahydroquinolin-5-yl)-1H-pyrazol-1-yl)methyl)phenoxy)ethylphosphonic acid] |  | > 10 µM

Now from value to molecule:

EC50 [1] | IC50 [2] | SMILES
24 nM | > 10 µM | Cc1c(Cl)cccc1OCCCC(=O)N1C[C@@H]2C[C@@H]2c2c(-c3cnn(Cc4cccc(C(=O)NCCS(=O)(=O)O)c4)c3)cccc21 [Example 138A, 2-(3-((4-((1aR,7bS)-3-(4-(3-Chloro-2-methylphenoxy)butanoyl)-1a,2,3,7b-tetrahydro-1H-cyclopropa[c]quinolin-7-yl)-1H-pyrazol-1-yl)methyl)benzamido) ethanesulfonic acid]
 | > 10 µM | Cc1cccc(OCCCC(=O)N2CCCc3c(-c4ccnc(Nc5ccc(C(=O)O)cc5)c4)cccc32)c1C [Example 168A, 4-(4-(1-(4-(2,3-Dimethylphenoxy)butanoyl)-1,2,3,4-tetrahydroquinolin-5-yl)pyridin-2-ylamino) benzoic acid]
47 nM | > 10 µM | Cc1c(Cl)cccc1OCCCC(=O)N1C[C@@H]2C[C@@H]2c2c(-c3cnn(Cc4cccc(C(=O)O)c4)c3)cccc21 (single isomer, unassigned) [Example 231]
 | > 10 µM | Cc1cccc(OCCCC(=O)N2CCOc3c(-c4cnn(Cc5c(F)cc(C(=O)NCC[N+](C)(C)C)cc5Cl)c4)cccc32)c1C [Example 177P, 2-(3-Chloro-4-((4-(4-(4-(2,3-dimethylphenoxy)butanoyl)-3,4-dihydro-2H-benzo[b][1,4]oxazin-8-yl)-1H-pyrazol-1-yl)methyl)-5-fluorobenzamido)-N,N,N-trimethylethanaminium, TFA]
 | > 10 µM | Cc1cccc(OCCCC(=O)N2C[C@@H]3C[C@@H]3c3c(-c4cccc(COC(=O)NCCC(=O)O)c4)cccc32)c1C (single isomer, unassigned) [Example 237]
